System: A375 multi-cell spheroids with HUVEC/MSC, viability
Assay: Anticancer human tumor A375 cell line growth inhibition [GQUAD];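 further: spheroids exposed to compounds for seven days before readout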
Details: for IC50: curve of first compound; for viability, T/C: stronger effect = lower value
Summary of the method: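 Multi-cell-type spheroids of tumor cells with HUVEC and mesenchymal stem cells, treated with drug combinations. Concentrations descend in half-log steps from near clinical Cmax, or from 10 microM where Cmax is unknown; viability read-out.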

[1] = second compound 0.0316 µM, first compound 0.0316 µM
[2] = second compound 0.0316 µM, first compound 0.316 µM
[3] = second compound 0.1 µM, first compound 0.0316 µM
[4] = second compound 0.1 µM, first compound 0.316 µM
[5] = second compound 0.316 µM, first compound 0.0316 µM
[6] = second compound 0.316 µM, first compound 0.316 µM
[7] = second compound 1 µM, first compound 0.0316 µM
[8] = second compound 1 µM, first compound 0.316 µM
[9] = second compound 3.16 µM, first compound 0.0316 µM
[10] = second compound 3.16 µM, first compound 0.316 µM
[11] = second compound 10 µM, first compound 0.0316 µM
[12] = second compound 10 µM, first compound 0.316 µM
[13] = second compound 0.0316 µM, first compound 0.1 µM
[14] = second compound 0.0316 µM, first compound 1 µM
[15] = second compound 0.0316 µM, first compound 3.16 µM
[16] = second compound 0.0316 µM, first compound 10 µM
[17] = second compound 0.1 µM, first compound 0.1 µM
[18] = second compound 0.1 µM, first compound 1 µM
[19] = second compound 0.1 µM, first compound 3.16 µM
[20] = second compound 0.1 µM, first compound 10 µM
[21] = second compound 0.316 µM, first compound 0.1 µM
[22] = second compound 0.316 µM, first compound 1 µM
[23] = second compound 0.316 µM, first compound 3.16 µM
[24] = second compound 0.316 µM, first compound 10 µM
[25] = second compound 1 µM, first compound 0.1 µM
[26] = second compound 1 µM, first compound 1 µM
[27] = second compound 1 µM, first compound 3.16 µM
[28] = second compound 1 µM, first compound 10 µM
[29] = second compound 3.16 µM, first compound 0.1 µM
[30] = second compound 3.16 µM, first compound 1 µM
[31] = second compound 3.16 µM, first compound 3.16 µM
[32] = second compound 3.16 µM, first compound 10 µM
[33] = second compound 10 µM, first compound 0.1 µM
[34] = second compound 10 µM, first compound 1 µM
[35] = second compound 10 µM, first compound 3.16 µM
[36] = second compound 10 µM, first compound 10 µM

Compound `Cc1[nH]c2ccccc2c1CCNCc1ccc(/C=C/C(=O)NO)cc1` + Cc1[nH]c2ccc(F)cc2c1-c1nc2c3cccnc3c3ncccc3c2[nH]1 has an IC50 (second compound 0.0316 µM) of 153 nM, an IC50 (second compound 0.1 µM) of 150 nM and an IC50 (second compound 0.316 µM) of 152 nM. For the same compound, the IC50 (second compound 1 µM) was 138 nM, the IC50 (second compound 3.16 µM) was 60.6 nM and the IC50 (second compound 10 µM) was 95.8 nM. For the same compound, the viability, T/C (second compound 0.0316 µM, first compound 0.000999 µM) was 102%, the viability, T/C (second compound 0.0316 µM, first compound 0.00316 µM) was 108% and the viability, T/C (second compound 0.0316 µM, first compound 0.00999 µM) was 115%. It also gave a viability, T/C [1] of 112%, a viability, T/C (second compound 0.0316 µM, first compound 0.0999 µM) of 73.4% and a viability, T/C [2] of 10.5%. The viability, T/C (second compound 0.1 µM, first compound 0.000999 µM) was 105%, the viability, T/C (second compound 0.1 µM, first compound 0.00316 µM) was 109% and the viability, T/C (second compound 0.1 µM, first compound 0.00999 µM) was 110%. For the same compound, the viability, T/C [3] was 124%, the viability, T/C (second compound 0.1 µM, first compound 0.0999 µM) was 72% and the viability, T/C [4] was 9.67%. It also gave a viability, T/C (second compound 0.316 µM, first compound 0.000999 µM) of 110%, a viability, T/C (second compound 0.316 µM, first compound 0.00316 µM) of 98.1% and a viability, T/C (second compound 0.316 µM, first compound 0.00999 µM) of 118%. It also gave a viability, T/C [5] of 116%, a viability, T/C (second compound 0.316 µM, first compound 0.0999 µM) of 72.4% and a viability, T/C [6] of 10.8%. The viability, T/C (second compound 1 µM, first compound 0.000999 µM) was 98%, the viability, T/C (second compound 1 µM, first compound 0.00316 µM) was 103% and the viability, T/C (second compound 1 µM, first compound 0.00999 µM) was 113%. For the same compound, the viability, T/C [7] was 106%, the viability, T/C (second compound 1 µM, first compound 0.0999 µM) was 65.9% and the viability, T/C [8] was 8.42%. It also gave a viability, T/C (second compound 3.16 µM, first compound 0.000999 µM) of 76.4%, a viability, T/C (second compound 3.16 µM, first compound 0.00316 µM) of 78.5% and a viability, T/C (second compound 3.16 µM, first compound 0.00999 µM) of 81.9%. The viability, T/C [9] was 86%, the viability, T/C (second compound 3.16 µM, first compound 0.0999 µM) was 26.4% and the viability, T/C [10] was 5.39%. The viability, T/C (second compound 10 µM, first compound 0.000999 µM) was 86%, the viability, T/C (second compound 10 µM, first compound 0.00316 µM) was 93% and the viability, T/C (second compound 10 µM, first compound 0.00999 µM) was 98.3%. For the same compound, the viability, T/C [11] was 92.2%, the viability, T/C (second compound 10 µM, first compound 0.0999 µM) was 48.4% and the viability, T/C [12] was 5.49%.

Compound `O=C(NO)c1cnc(N2CCN(S(=O)(=O)c3ccc4ccccc4c3)CC2)nc1` + Cc1[nH]c2ccc(F)cc2c1-c1nc2c3cccnc3c3ncccc3c2[nH]1 has an IC50 (second compound 0.0316 µM) of 203 nM, an IC50 (second compound 0.1 µM) of 445 nM and an IC50 (second compound 0.316 µM) of 507 nM. It also gave an IC50 (second compound 1 µM) of 447 nM, an IC50 (second compound 3.16 µM) of 202 nM and an IC50 (second compound 10 µM) of 251 nM. The viability, T/C [1] was 104%, the viability, T/C [13] was 113% and the viability, T/C [2] was 13.4%. It also gave a viability, T/C [14] of 0.27%, a viability, T/C [15] of 0.25% and a viability, T/C [16] of 0.27%. It also gave a viability, T/C [3] of 105%, a viability, T/C [17] of 119% and a viability, T/C [4] of 71%. The viability, T/C [18] was 0.27%, the viability, T/C [19] was 0.8% and the viability, T/C [20] was 0.26%. The viability, T/C [5] was 106%, the viability, T/C [21] was 112% and the viability, T/C [6] was 84.5%. For the same compound, the viability, T/C [22] was 0.24%, the viability, T/C [23] was 0.19% and the viability, T/C [24] was 0.23%. It also gave a viability, T/C [7] of 109%, a viability, T/C [25] of 106% and a viability, T/C [8] of 71.3%. For the same compound, the viability, T/C [26] was 0.21%, the viability, T/C [27] was 0.15% and the viability, T/C [28] was 0.23%. The viability, T/C [9] was 96.3%, the viability, T/C [29] was 89.5% and the viability, T/C [10] was 24.7%. For the same compound, the viability, T/C [30] was 0.19%, the viability, T/C [31] was 0.16% and the viability, T/C [32] was 0.22%. It also gave a viability, T/C [11] of 111%, a viability, T/C [33] of 105% and a viability, T/C [12] of 36.2%. It also gave a viability, T/C [34] of 0.21%, a viability, T/C [35] of 0.21% and a viability, T/C [36] of 0.25%.

With `CC(C)n1c(=O)n(C)c2cnc3cc(F)c(-c4ccc(OCCCN5CCCCC5)nc4)cc3c21` + Cc1cnc(CNC(=O)c2c(=O)c3ccc(N4CCCN(C)CC4)nc3n3c2sc2ccccc23)cn1 the IC50 (second compound 0.0316 µM) was > 10000 nM, the IC50 (second compound 0.1 µM) was > 10000 nM and the IC50 (second compound 0.316 µM) was 778 nM. The IC50 (second compound 1 µM) was 85.3 nM, the IC50 (second compound 3.16 µM) was < 31.6 nM and the IC50 (second compound 10 µM) was < 31.6 nM. It also gave a viability, T/C [1] of 108%, a viability, T/C [13] of 90.5% and a viability, T/C [2] of 98.4%. The viability, T/C [14] was 82.2%, the viability, T/C [15] was 72.5% and the viability, T/C [16] was 58.7%. It also gave a viability, T/C [3] of 77.6%, a viability, T/C [17] of 64.2% and a viability, T/C [4] of 74.2%. The viability, T/C [18] was 63.4%, the viability, T/C [19] was 55.5% and the viability, T/C [20] was 50.7%. The viability, T/C [5] was 60.5%, the viability, T/C [21] was 53.1% and the viability, T/C [6] was 53%. It also gave a viability, T/C [22] of 49.8%, a viability, T/C [23] of 45.6% and a viability, T/C [24] of 37.6%. For the same compound, the viability, T/C [7] was 56%, the viability, T/C [25] was 47.4% and the viability, T/C [8] was 40.4%. It also gave a viability, T/C [26] of 45.2%, a viability, T/C [27] of 40.3% and a viability, T/C [28] of 30.5%. The viability, T/C [9] was 43.7%, the viability, T/C [29] was 41.9% and the viability, T/C [10] was 40%. For the same compound, the viability, T/C [30] was 36.8%, the viability, T/C [31] was 37.2% and the viability, T/C [32] was 28.4%. It also gave a viability, T/C [11] of 35.8%, a viability, T/C [33] of 39% and a viability, T/C [12] of 38.9%. For the same compound, the viability, T/C [34] was 34.2%, the viability, T/C [35] was 30.3% and the viability, T/C [36] was 22.8%.

With `CC1COCCN1c1cc(-c2ccnn2C)c2ccnc(-c3ccn[nH]3)c2n1` (stereo not drawn) + Cc1cnc(CNC(=O)c2c(=O)c3ccc(N4CCCN(C)CC4)nc3n3c2sc2ccccc23)cn1 the IC50 (second compound 0.0316 µM) was 279 nM, the IC50 (second compound 0.1 µM) was 74.3 nM and the IC50 (second compound 0.316 µM) was < 31.6 nM. The IC50 (second compound 1 µM) was < 31.6 nM, the IC50 (second compound 3.16 µM) was < 31.6 nM and the IC50 (second compound 10 µM) was < 31.6 nM. It also gave a viability, T/C [1] of 102%, a viability, T/C [13] of 69.3% and a viability, T/C [2] of 51.9%. For the same compound, the viability, T/C [14] was 28.3%, the viability, T/C [15] was 13.8% and the viability, T/C [16] was 13.9%. For the same compound, the viability, T/C [3] was 67.5%, the viability, T/C [17] was 37.5% and the viability, T/C [4] was 35.9%. The viability, T/C [18] was 23.3%, the viability, T/C [19] was 13.7% and the viability, T/C [20] was 9.98%. For the same compound, the viability, T/C [5] was 39.5%, the viability, T/C [21] was 33.8% and the viability, T/C [6] was 27.6%. It also gave a viability, T/C [22] of 21.7%, a viability, T/C [23] of 13.9% and a viability, T/C [24] of 10.4%. It also gave a viability, T/C [7] of 38.2%, a viability, T/C [25] of 35% and a viability, T/C [8] of 29.6%. For the same compound, the viability, T/C [26] was 21.5%, the viability, T/C [27] was 12.7% and the viability, T/C [28] was 11.3%. It also gave a viability, T/C [9] of 30.8%, a viability, T/C [29] of 30.2% and a viability, T/C [10] of 30.7%. The viability, T/C [30] was 22.4%, the viability, T/C [31] was 13.2% and the viability, T/C [32] was 10%. It also gave a viability, T/C [11] of 26.7%, a viability, T/C [33] of 27.9% and a viability, T/C [12] of 24.1%. The viability, T/C [34] was 16.9%, the viability, T/C [35] was 13.3% and the viability, T/C [36] was 9.71%.

Source: PubChem BioAssay AID2060485 (Molecular Pharmacology Branch, DTP, NCI, 2025)
